Assay results reported in patent US8883752B2, “5′ and 2′ BIS-substituted nucleosides and oligomeric compounds prepared therefrom” (Isis Pharmaceuticals, Inc., priority 2008, dated 2014).
Oligonucleotides are written 5' to 3', each unit as a sugar letter and its base; * is a phosphorothioate linkage, no mark a phosphodiester; rarer units and linkages stand in square brackets, end groups in braces. Plain capitals give the bases only. [DMAEAc-N] = 2'-O-dimethylaminoethyl acetamide sugar (N: the base); [5'R-Me-N] = (R)-5'-methyl-2'-deoxyribonucleoside (N: the base); {Py} = methylenephosphonate group, PO(OH)2CH2-; e = 2'-O-(2-methoxyethyl) (MOE); [5mC] = 5-methylcytosine; d = 2'-deoxy (DNA); m = 2'-O-methyl; {P} = phosphate; f = 2'-fluoro

How the values were obtained:
[1] = Modified ssRNA 5′-phosphate serum stability assay; format: in vitro ADME; settings: 10 μM in 95% fresh mouse serum, 37° C., 0-24 h, LC/MS
Text: A serum stability assay is useful for evaluating the stability of oligomeric compounds in the presences of nucleases and other enzymes found in serum. For example, the stability of a 5′-terminal phosphate group of an oligomeric compound can be evaluated by assessing the ability of the 5′-terminal phosphate group to remain attached to the oligomeric compound in the presence of serum. Accordingly, a serum stability assay was employed to evaluate the stability of modified ssRNAs having a 5′-terminal phosphate group.
Various modified ssRNAs, shown below, having a 5′-terminal phosphate group (10 μM) were dissolved in 95% of fresh mouse serum and incubated at 37° C. Aliquots of serum (100 μL) were removed after 0, 1, 3, 6 or 24 hours of incubation times. The serum samples were immediately quenched and snap frozen. The samples were extracted by the strong anion exchange (SAX) and octadecylsilyl (C-18) columns. For each incubation time, the amount of full length modified ssRNA having a 5′-terminal phosphate group was determined by LC/MS, and the half-life of the full length modified ssRNA having a 5′ terminal phosphate group was calculated. The results are expressed as half-time (T1/2) in the table below.

[2] = system: PTEN mRNA; test: PTEN mRNA levels in liver of Balb/c mice after single i.p. injection (Example 65); format: in vivo, mouse; settings: 48 h; for Inhibition of PTEN in vivo (in words): 75 mg/kg; for % inhibition of PTEN mRNA expression: liver, single i.p. 75 mg/kg, normalized to saline-injected control
Experimental: In accordance with the present disclosure, oligomeric compounds were synthesized and tested for their ability to reduce PTEN expression in vivo at dose of 75 mg/kg. Six week old male Balb/c mice (Jackson Laboratory, Bar Harbor, Me.) were administered a single intraperitoneal (i.p) injection at 75 mg/kg of ISIS 467074 having a 5′-phosphate group and […] having a 5′-methylenephosphonate group, (PO(OH)2CH2—). A 5-10-5 gapped oligomer, ISIS 116847 having 2′-O-MOE modified nucleosides in wings with a 5′-phosphorothioate group was included for comparison.
Each dose group consisted of four animals. The mice were sacrificed 48 hours following the final administration to determine the PTEN mRNA levels in liver using real-time PCR and RIBOGREEN® RNA quantification reagent (Molecular Probes, Inc. Eugene, Oreg.) according to standard protocols. PTEN mRNA levels were determined relative to total RNA (using Ribogreen), prior to normalization to saline-treated control. Results are listed below as the average % inhibition of PTEN mRNA expression for each treatment group, normalized to saline-injected control.

[3] = In vivo stability: tissue level of intact compound (Example 66); set-up: species or system mouse; settings: Balb/c mice
Experimental: […] were homogenized in a homogenation buffer (20 mM Tris, pH 8, 20 mM EDTA and 0.1 M NaCl in 0.5% NP-40) at time points 0, 5, 10, 20, 30, 40 and 60 minutes (Exception: 06/408877 at time points 0, 15, 30, 60, 120 and 240 mins, 06/409044, at time points 0, 0.5, 1, 2, 4, 8, and 18 hours). An internal standard (18/355868, a 27-mer, 2′-O-methoxyethyl-modified phosphorothioate oligonucleotide, or 19/116847, a 5-10-5 gapmer, 2′-O-methoxyethyl-modified phosphorothioate oligonucleotide) with concentration at 20 μg/g was added prior to extraction. Tissue samples were extracted with 70 μL of NH4OH and 240 μL of phenol/chloroform/isoamyl alcohol (25:24:1). The supernatant was removed after centrifugation at 14000 rpm for […]. The remaining extractant was vortexed with an additional 500 μL of water and the aqueous layer was removed and combined with the supernatant after centrifugation at 14000 rpm for 2 minutes.
Triethylammonium acetate solution at 1M (500 μL) was added to the supernatant. The aqueous layer of the mixture was loaded onto the pre-conditioned Biotage™ Phenyl Solid Phase Extraction Plate (SPE plate) after centrifugation at 9000 rpm for 20 minutes. The SPE plate was washed several times with water. The sample was then eluted with 1.5 mL of 1% TEA in 90% MeOH and filtered through the Protein Precipitation Plate (Phenomenex™). The elutent was evaporated to dryness and diluted to 200 μL with 50% quenching buffer (8 M urea, 50 mM EDTA) and water before sample injection.
An Agilent 1100 Series LC/MSD system was connected in-line to a mass spectrometry. Mass spectrometer was operated in the electrospray negative ionization mode. The nebulizer nitrogen gas was set at […] and the drying nitrogen gas was set at 12 L/min. The drying temperature was 325° C. Samples (25 μL/well) were introduced via an auto sampler and reversed-phase chromatography was carried out with an)(Bridge OST C18 2.5 μm 2.1 mm×50 mm HPLC column using a flow rate of 300 μL/min at 55° C. The ion pair buffers consisted of A: 5 mM tributylammonium acetate (TBAA) in 20% acetonitrile and B: […] TBAA in 90% acetonitrile and the loading buffer was 25 mM TBAA in 25% Acetonitrile. Separation was performed on a 30% to 70% B in 9 min and then 80% B in 11 min gradient.
Quantitative analysis of oligonucleotide and internal standard by extracted ion chromatograms of the most abundant ions was performed using MSD ChemStation software.
The in vivo stability of the three oligomeric compounds in Example 65 was evaluated. The tissue samples were obtained from the animals in which PTEN was assessed. Tissue samples were collected and prepared using the same technique described in Example 64. Quantitative analysis of the oligonucleotides standard were performed by extracted ion chromatograms in the most abundant charge state (−4) using Chemstation software. The tissue level (μg/g) of intact compound of ISIS 116847, 467074 and 467076 was measured and are provided below.

Substance	T1/2 (h) of full length modified ssRNA having a 5′-terminal phosphate group [1] [h]	Inhibition of PTEN in vivo (in words) [2]	% inhibition of PTEN mRNA expression [2] [%]	Level of intact compound in tissue (in words) ([3]; 75 mg/kg, 48 h)	Compound lacking the 5′-phosphate in tissue ([3]; 75 mg/kg, 48 h)	Tissue Level of intact compound ([3]; 75 mg/kg i.p., 48 h time point, LC-MS) [µg/g]
ISIS 404320: modified ssRNA targeting PTEN, SEQ ID NO 05: P-UfUfGfUfCfUfCfUfGfGfUfCfCfUfUfAfCfUfUfAeAe (antisense {P}-fUfUfGfUfCfUfCfUfGfGfUfCfCfU*fU*fA*fC*fU*fU*eA*eA; single-stranded RNA for RNAi)	4					
ISIS 467076: 5′-methylenephosphonate ssRNA, SEQ ID NO 05: Py-meUmUfGmUfCmUfCmUfGmGfUmCfCmUfUmAfCmUfUmAeAe (antisense {Py}-mT*fU*mGfU*mCfU*mCfU*mGfG*mUfC*mCfU*mU*fA*mC*fU*mU*eA*eA; further chemistry not fully specified)		smaller inhibition of PTEN	16	present at a lower concentration		
ISIS 467074: modified ssRNA, SEQ ID NO 06: P-TScUfGmUfCmUfCmUfGmGfUmCfCmUfUmAfCmUfUmAeAe (antisense TUGUCUCUGGUCCUUACUUAA; 5'-phosphate, modified sugars, 2'-F/2'-OMe, MOE, chemistry not fully specified)		lowest amount of PTEN reduction	11	not detected	lacking the 5′-phosphate was detected	
ISIS 422391: modified ssRNA, SEQ ID NO 06: P-TdUfGfUfCfUfCfUfGfGfUfCfCfUfUfAfCfUfUfAeAe; d = 2′-O-DMAEAc (antisense {P}-[DMAEAc-T]fUfGfUfCfUfCfUfGfGfUfCfCfU*fU*fA*fC*fU*fU*eA*eA; single-stranded RNA for RNAi)	6.5					
ISIS 116847: 5-10-5 gapped oligomer with 2′-O-MOE wings, included for comparison: meCeTeGemeCeTeAGmeCmeCTmeCTGGATeTeTeGeAe (e[5mC]*eT*eG*e[5mC]*eT*dA*dG*d[5mC]*d[5mC]*dT*d[5mC]*dT*dG*dG*dA*eT*eT*eT*eG*eA) [reference compound]		potent inhibitor of PTEN	76	present at high levels		131.1
ISIS 398701: modified ssRNA, SEQ ID NO 09: P-USfUfGfUfCfUfCfUfGfGfUfCfCfUfUfAfCfUfUf (antisense UUGUCUCUGGUCCUUACUU; 5'-phosphate, 2'-fluoro, phosphorothioate, chemistry not fully specified)	18.2					
ISIS 432356: modified ssRNA, SEQ ID NO 06: P-TRUfGfUfCfUfCfUfGfGfUfCfCfUfUfAfCfUfUfAeAe; R = (R)-5′-methyl-2′-deoxyribonucleoside (antisense {P}-[5'R-Me-T]fUfGfUfCfUfCfUfGfGfUfCfCfU*fU*fA*fC*fU*fU*eA*eA; single-stranded RNA for RNAi)	8.7					
